Data from patent publication EP4129319A1, “PORE-FORMING ANTIMICROBIAL PEPTIDES” (priority 2021, dated 2023).
Where two headings read alike, the source gives them in different places. Ends that are not written are not given here.

Key:
[1] = test system: human red blood cells (HRBCs); type: cell-based
Protocol: (§1) Chemicals. […] (Prague, Czech Republic), and Caslo ApS (Kongens Lyngby, Denmark). […] The bacterial stock was stored at -80°C.
Hemolysis assay. Hemolytic toxicity of the peptides was evaluated from their ability to lyse the fresh human red blood cells (HRBCs) collected from the University Hospital (Brno, Czech Republic). To obtain the erythrocyte pellets, the blood samples were centrifuged twice at 700×g and subsequently, once at 1000×g, each for 8 min. at 4 °C, which was followed by thorough washing with PBS. Resuspension of the pellets was done in PBS to obtain 0.5% (vol/vol) RBC suspension. In a well plate with 96 V-shaped bottom wells, the peptides were added in a dilution series from 0.1 to 50 µM concentration. Subsequently, HRBC suspension was added in each well. Negative control wells contained only PBS and HRBC suspension without any peptide (i.e., 0% lysis), and positive control wells included 5 µM melittin in the HRBC suspension. After incubation for 1 h at 37 °C, the well plates were centrifuged at 1000×g for 10 min. at 4 °C. Subsequently, the supernatant was collected in a flat-bottomed well plate and the optical density of the released hemoglobin was measured for each well at 415 nm wavelength. The calculated absorbances from the wells were then normalized against the averaged absorbances of the positive and the negative control wells. EC50 value was calculated from the normalized absorbances indicating 50% hemolysis of HRBCs. Experiments were performed in triplicates with three independent blood samples.

[2] = Calcein leakage assay; type: biochemical; conditions: for Extent of leakage (in percentage) at increasing peptide-to-lipid ratio (mol/mol) 1:20 / Extent of leakage (in percentage) at increasing peptide-to-lipid ratio (mol/mol) 1:50 / Extent of leakage (in percentage) at increasing peptide-to-lipid ratio (mol/mol) 1:100 / Extent of leakage (in percentage) at increasing peptide-to-lipid ratio (mol/mol) 1:10: calcein leakage, POPC:POPG (1:1 mol/mol) LUVs; for Extent of leakage (in percentage) at increasing peptide-to-lipid ratio (mol/mol) 1:20: peptide-to-lipid ratio 1:20 (mol/mol); for Extent of leakage (in percentage) at increasing peptide-to-lipid ratio (mol/mol) 1:50: peptide-to-lipid ratio 1:50 (mol/mol); for Extent of leakage (in percentage) at increasing peptide-to-lipid ratio (mol/mol) 1:100: peptide-to-lipid ratio 1:100 (mol/mol); for Extent of leakage (in percentage) at increasing peptide-to-lipid ratio (mol/mol) 1:10: peptide-to-lipid ratio 1:10 (mol/mol)
Protocol: as §1
Calcein leakage assay. Pore-forming activity of the peptides was tested by their ability to leak the self-quenching fluorescent dye calcein entrapped within POPC:POPG (1:1 mol/mol) large unilamellar vesicles (LUVs). After mixing DiD to the lipid mixture (in the ratio 1:500 mol/mol), a thin lipid film was created by evaporating of the chloroform, traces of which were removed by desiccating overnight. The lipid film was then dissolved in calcein buffer, followed by vigorous vortexing. The lipid suspension was subsequently subjected to 10 freeze-thaw cycles. To obtain uniform LUVs, the sample was passed 50 times back and forth through an extruder stacked with 100 nm pore size polycarbonate membrane filter. Afterwards, the untrapped calcein was removed on a HiTrap Desalting Column (with Sephadex G-25 Superfine resin) by washing with PBS buffer. The concentration of the lipid suspension was then adjusted to 0.02 mM. The concentration of the peptide solution was 0.1 mM. The inventors monitored the peptide-induced release of calcein from LUVs by the increase in fluorescence intensity after adding increasing amounts of peptides to the LUVs under constant stirring at 25 °C. The investigated range of peptide/lipid molecular ratio was from 1:100 to 1:10. The excitation and emission wavelengths were set to 495 nm and 520 nm, respectively. Maximum fluorescence intensity was obtained by disrupting all the vesicles in the end by adding 10% Triton X-100. Experiments were performed in triplicates with independently prepared lipid vesicles.

[3] = test system: Gram-positive Staphylococcus carnosus CCM 4838T; type: cell-based
Protocol: as §1
(§2) Broth microdilution assay. Antimicrobial activity of the peptides was investigated against Gram-negative Escherichia coli TOP10 strain and Gram-positive Staphylococcus carnosus CCM 4838T using broth microdilution assay, based on which the inventors determined the bacterial minimum inhibition concentration (MIC). After cross streaking with bacteria, the petri dishes (with MHA) were incubated for 24 h at 37 °C. Overnight grown cultures were then sub-cultured for 4-6 h at 37 °C in test tubes containing MHB. The sub-cultured solutions were subsequently diluted to a standard concentration of 10^6 colony forming units (CFU) per mL. Cell counts were determined by measuring the optical density at 600 nm. In a flat-bottomed 96 well plate, the inventors prepared a dilution series for the peptides and for the reference antibiotic ampicillin from 50 to 0.1 µM concentration, which was then inoculated with bacteria and incubated for 24 h at 37 °C. Growth control wells were free from peptides or ampicillin to show the viability of the bacteria, and sterility control wells were free from bacterial inoculation to verify the sterility of the medium. The bacterial growth was visually evaluated based on the turbidity. MIC was determined as the lowest concentrated well where no visible bacterial growth was observed. To test the bacteriostatic or bacteriocidal activity of the peptides, 50 µl solution from the highest concentrated well (i.e., 50 µM) was transferred to a test tube containing 4 mL sterile MHB and incubated for 24 h at 37 °C under constant stirring. Streaking of the same solution was done on MHA containing petri dishes and incubated for 24 h at 37 °C to confirm the morphology of the colonies grown. Experiments were performed in triplicates.

[4] = test system: Gram-negative Escherichia coli TOP10 strain; type: cell-based; conditions: for Antibacterial activity (MIC in µM) E. coli TOP10: broth microdilution assay
Protocol: as §1, §2

[5] = test system: human dermal fibroblast (HDF) cell lines; experiment: Neutral red uptake assay (cytotoxicity); type: cell-based
Protocol: Neutral red uptake assay. To evaluate the cytotoxicity of the peptides against human dermal fibroblast (HDF) cell lines, the inventors purchased the neutral red uptake assay from Essence Line (Praha, Czech Republic). The initial cell culture was sub-cultured in supplemented Dulbecco's Modified Eagle Medium (DMEM) and diluted to a cell density of 1 × 10^5 cells/mL. The diluted culture was then seeded into the wells (1 × 10^4

[6] = hemolysis assay, HRBCs, read-out: Toxicity (EC50 in µM) HRBCs
[7] = 24 h at 37 °C, dilution series 50 to 0.1 µM

RRRRLKKILKKLFQFINQLDNQLQDIRQNR-NH2 [KDFA2i+9-NH2-Rter]
EC50 [1, 6]: 6.9 µM
Extent of leakage (in percentage) at increasing peptide-to-lipid ratio (mol/mol) 1:20 [2]: 103.3 ± 1.2 percentage
Extent of leakage (in percentage) at increasing peptide-to-lipid ratio (mol/mol) 1:50 [2]: 98.8 ± 1.2 percentage
Extent of leakage (in percentage) at increasing peptide-to-lipid ratio (mol/mol) 1:100 [2]: 65.5 ± 4.2 percentage
Antibacterial activity (MIC in µM) S. carnosus ([3]; CCM 4838): 0.8 µM
Antibacterial activity (MIC in µM) E. coli TOP10 [4]: 0.4 µM

KQKKLKKFFNQLIQLINQLFNQLDDFNQNK [KDFB12]
EC50 [5]: 20 µM
EC50 [1]: > 50 µM
Extent of leakage (in percentage) at increasing peptide-to-lipid ratio (mol/mol) 1:20 [2]: 101.5 ± 0.6 percentage
Extent of leakage (in percentage) at increasing peptide-to-lipid ratio (mol/mol) 1:50 [2]: 98.2 ± 0.7 percentage
Extent of leakage (in percentage) at increasing peptide-to-lipid ratio (mol/mol) 1:100 [2]: 79.4 ± 3.7 percentage
Antibacterial activity (MIC in µM) S. carnosus ([3]; CCM 4838): 6.3 µM
Antibacterial activity (MIC in µM) E. coli TOP10 [4]: 6.3 µM

KKKKLKKILKKLFQFIDQLDNDLQDIKKKK (not fully specified (C-terminus)) [KDFC16+9-NH2, group C peptide, net charge +9 e; 89]
EC50 ([5]; HDFs, column stands under the head 'Hemolysis assay', read-out: Toxicity (EC50 in µM) HDFs): 10 µM
EC50 [1, 6]: > 50 µM
Extent of leakage (in percentage) at increasing peptide-to-lipid ratio (mol/mol) 1:10 [2]: 99.28 ± 1.2 percentage
Extent of leakage (in percentage) at increasing peptide-to-lipid ratio (mol/mol) 1:20 [2]: 98.3 ± 5.2 percentage
Extent of leakage (in percentage) at increasing peptide-to-lipid ratio (mol/mol) 1:50 [2]: 97.4 ± 9.3 percentage
Extent of leakage (in percentage) at increasing peptide-to-lipid ratio (mol/mol) 1:100 [2]: 78.2 ± 4.5 percentage
MIC against S. carnosus [3, 7]: 0.4 µM
times higher MIC than that of ampicillin, S. carnosus ([3]; ratio to ampicillin): 4
MIC against E. coli [4, 7]: 0.8 µM
Antibacterial activity (MIC in µM) E. coli TOP10 [4]: 0.8 µM
times lower MIC than the MIC of ampicillin, E. coli ([4]; ratio to ampicillin): 15

KKKKLDDILDDLFQFIKQLKNKLQKIKKKK-NH2 [DKFC16+9-NH2]
EC50 [1]: > 50 µM
calcein / vesicle leakage, pore-forming ability (in words) ([2]; POPC:POPG (1:1) LUVs): resulted in vesicle leakage
Extent of leakage (in percentage) at increasing peptide-to-lipid ratio (mol/mol) 1:20 [2]: 103.3 ± 0.9 percentage
Extent of leakage (in percentage) at increasing peptide-to-lipid ratio (mol/mol) 1:50 [2]: 89.5 ± 3.3 percentage
Extent of leakage (in percentage) at increasing peptide-to-lipid ratio (mol/mol) 1:100 [2]: 50.1 ± 4.1 percentage
antimicrobial activity against S. carnosus (in words) [3]: found active against S. carnosus
Antibacterial activity (MIC in µM) S. carnosus ([3]; CCM 4838): 1.6 µM
antimicrobial activity against E. coli (in words) [4]: did not show activity against E. coli
Antibacterial activity (MIC in µM) E. coli TOP10 [4]: > 50 µM

KKKKLKKILKKLFQFINQLIDDLDDIKKKK-NH2 [KDFC21+9-NH2]
EC50 [1]: > 50 µM
Extent of leakage (in percentage) at increasing peptide-to-lipid ratio (mol/mol) 1:10 [2]: 102.2 ± 1.1 percentage
Extent of leakage (in percentage) at increasing peptide-to-lipid ratio (mol/mol) 1:20 [2]: 99.4 ± 1.6 percentage
Extent of leakage (in percentage) at increasing peptide-to-lipid ratio (mol/mol) 1:50 [2]: 78.2 ± 1.2 percentage
Antibacterial activity (MIC in µM) S. carnosus ([3]; CCM 4838): 3.1 µM
Antibacterial activity (MIC in µM) E. coli TOP10 [4]: 3.1 µM

KKKKLKKILKKLFQFIDQLINDLQNIKKKK-NH2 [KDFA5+11-NH2]
EC50 [1, 6]: > 50 µM
Extent of leakage (in percentage) at increasing peptide-to-lipid ratio (mol/mol) 1:20 [2]: 101.6 ± 1.4 percentage
Extent of leakage (in percentage) at increasing peptide-to-lipid ratio (mol/mol) 1:50 [2]: 78.0 ± 4.3 percentage
Extent of leakage (in percentage) at increasing peptide-to-lipid ratio (mol/mol) 1:100 [2]: 38.6 ± 3.5 percentage
Antibacterial activity (MIC in µM) S. carnosus ([3]; CCM 4838): 1.6 µM
Antibacterial activity (MIC in µM) E. coli TOP10 [4]: 1.6 µM

KKKKLKKILKKLFQFINQLDNQLQDIKQNK-NH2 [KDFA2i+9-NH2]
EC50 [5]: 97 µM
EC50 [1, 6]: > 50 µM
Antibacterial activity (MIC in µM) S. carnosus ([3]; CCM 4838): 0.8 µM
Antibacterial activity (MIC in µM) E. coli TOP10 [4]: 0.8 µM

KKKKLKKFFKKLIQLINQLFDDLDDFKKKK-NH2 [KDFD24+9-NH2]
EC50 [1]: > 50 µM
Extent of leakage (in percentage) at increasing peptide-to-lipid ratio (mol/mol) 1:10 [2]: 98.7 ± 3.2 percentage
Extent of leakage (in percentage) at increasing peptide-to-lipid ratio (mol/mol) 1:20 [2]: 81.5 ± 6.8 percentage
Extent of leakage (in percentage) at increasing peptide-to-lipid ratio (mol/mol) 1:50 [2]: 42.6 ± 11.5 percentage
Extent of leakage (in percentage) at increasing peptide-to-lipid ratio (mol/mol) 1:100 [2]: 13.0 ± 5.2 percentage
Antibacterial activity (MIC in µM) S. carnosus ([3]; broth microdilution assay, S. carnosus): 12.5 µM
Antibacterial activity (MIC in µM) E. coli TOP10 [4]: 12.5 µM
